Experimental data as given in ChEMBL document CHEMBL1914403 (J Med Chem, 2011).

Legend:
[1] = Drug uptake in brain; type: ADME, tissue-based
[2] = Oral bioavailability in rat at […]; type: ADME, organism-based; conditions: in vivo
[3] = tested on: Rattus norvegicus; assay: Volume of distribution at steady state in rat at […], po; type: ADME, organism-based; parameters: dose 2.5 mg/kg, route oral; conditions: in vivo
[4] = AUC in brain of rat at 10 mg/kg, po; type: ADME, organism-based; parameters: dose 10 mg/kg, route oral
[5] = AUC in plasma of rat at 10 mg/kg, po; type: ADME, organism-based; parameters: dose 10 mg/kg, route oral
[6] = tested on: Rattus norvegicus; assay: Volume of distribution at steady state in rat at 2 mg/kg, po; type: ADME, organism-based; parameters: dose 2 mg/kg, route oral; conditions: in vivo
[7] = Oral bioavailability in rat at 2 mg/kg; type: ADME, organism-based; conditions: in vivo
[8] = Oral bioavailability in dog at 2 mg/kg; type: ADME, organism-based, Canis lupus familiaris; conditions: in vivo
[9] = tested on: Canis familiaris; assay: Volume of distribution at steady state in dog at 2 mg/kg, po; type: ADME, organism-based, Canis lupus familiaris; parameters: dose 2 mg/kg, route oral; conditions: in vivo
[10] = tested on: Rattus norvegicus; assay: Volume of distribution at steady state in rat at 0.1 mg/kg, po; type: ADME, organism-based; parameters: dose 0.1 mg/kg, route oral; conditions: in vivo
[11] = Oral bioavailability in rat at 0.1 mg/kg; type: ADME, organism-based; conditions: in vivo
[12] = Oral bioavailability in dog at 0.5 mg/kg; type: ADME, organism-based, Canis lupus familiaris; conditions: in vivo
[13] = tested on: Canis familiaris; assay: Volume of distribution at steady state in dog at 0.5 mg/kg, po; type: ADME, organism-based, Canis lupus familiaris; parameters: dose 0.5 mg/kg, route oral; conditions: in vivo
[14] = Oral bioavailability in dog at […]; type: ADME, organism-based, Canis lupus familiaris; conditions: in vivo
[15] = tested on: MDCK; assay: Apparent permeability across basolateral to apical side of dog MDCK cells expressing human MDR1; type: ADME, cell-based, Canis lupus familiaris
[16] = tested on: MDCK; assay: Apparent permeability across apical to basolateral side of dog MDCK cells expressing human MDR1; type: ADME, cell-based, Canis lupus familiaris
[17] = tested on: Canis familiaris; assay: Volume of distribution at steady state in dog at […], po; type: ADME, organism-based, Canis lupus familiaris; parameters: dose 2.5 mg/kg, route oral; conditions: in vivo

## Cc1ccccc1-c1nc(C)c2c(C)nc3ccc(F)cc3n12
[1]
  Drug uptake: > 90%

## COc1ccc2nc(C)c3c(C)nc(-c4ccncc4C)n3c2n1
[1]
  Drug uptake: > 90%

## COc1ccc2nc(C)c3c(C)nc(-c4cccnc4C)n3c2n1
[1]
  Drug uptake: > 90%

## COc1ccc2nc(C)c3c(C)nc(-c4cn[nH]c4)n3c2n1
[1]
  Drug uptake: > 90%

## COc1ccc2nc(C(F)F)c3c(C)nc(-c4ccccc4Cl)n3c2n1
[1]
  Drug uptake: > 90%

## COc1ccc2nc(C(F)(F)F)c3c(C)nc(-c4ccccc4Cl)n3c2n1
[1]
  Drug uptake: > 90%

## COc1cc(N2CCOCC2)cc2c1nc(C)c1c(C)nc(-c3ccncc3C)n12
[1]
  Drug uptake: > 90%

## COc1ccc2nc(C)c3c(C)nc(-c4ccccc4C(F)(F)F)n3c2n1
[1]
  Drug uptake: > 90%

## COc1ccc2nc(C)c3c(C)nc(-c4cnccc4OC)n3c2n1
[1]
  Drug uptake: > 90%

## COc1cc(F)c2nc(C)c3c(C)nc(-c4ccncc4C)n3c2c1
[1]
  Drug uptake: > 90%

## COc1ccc2nc(C)c3c(C)nc(-c4ccccc4C)n3c2n1
[1]
  Drug uptake: > 90%

## COc1ccc2nc(C)c3c(C)nc(-c4sc(C)nc4C)n3c2n1
[1]
  Drug uptake: > 90%

## COc1ccc2nc(C)c3c(C)nc(-c4c(C)noc4C)n3c2n1
[1]
  Drug uptake: > 90%

## COc1ccc2nc(C)c3c(C)nc(-c4cnccc4C)n3c2c1
[1]
  Drug uptake: > 90%

## Cc1cnccc1-c1nc(C)c2c(C)nc3c(Cl)cc(C(F)(F)F)cc3n12
[1]
  Drug uptake: > 90%

## COc1cc(Cl)c2nc(C)c3c(C)nc(-c4ccncc4C)n3c2c1
[1]
  Drug uptake: > 90%

## COc1ccc2nc(C)c3c(C)nc(-c4ccc(C)nc4)n3c2n1
[1]
  Drug uptake: > 90%

## COc1cc(C(F)(F)F)cc2c1nc(C)c1c(C)nc(-c3ccncc3C)n12
[1]
  Drug uptake: > 90%

## COc1cc(F)c2nc(C)c3c(C)nc(-c4cccnc4C)n3c2c1
[1]
  Drug uptake: > 90%

## COc1ccc2nc(C)c3c(C)nc(-c4cnccc4C)n3c2n1
[1]
  Drug uptake: > 90%
[2]
  bioavailability: 25%
[3]
  Vdss: 1 L/kg
[4]
  AUC: 866 ng·h/mL
[5]
  AUC: 747 ng·h/mL

## COc1ccc(Cl)c(-c2nc(C(F)(F)F)c3c(C)nc4ccc(OC)nc4n23)c1
[1]
  Drug uptake: > 90%

## COc1cc(F)cc2c1nc(C)c1c(C)nc(-c3cnccc3C)n12
[1]
  Drug uptake: > 90%

## COc1ccc2nc(C)c3c(C)nc(-c4cc(Cl)ccc4Cl)n3c2n1
[1]
  Drug uptake: > 90%

## COc1ccc2nc(C)c3c(C)nc(-c4ccc(F)cc4Cl)n3c2n1
[1]
  Drug uptake: > 90%

## COc1ccc2nc(C)c3c(C)nc(-c4cccn4C)n3c2n1
[1]
  Drug uptake: > 90%

## COc1ccc2nc(C)c3c(C)nc(-c4cccnc4)n3c2n1
[1]
  Drug uptake: > 90%

## CCOc1cc(F)cc2c1nc(C)c1c(C)nc(-c3ccccc3C)n12
[1]
  Drug uptake: > 90%

## Cc1cnccc1-c1nc(C)c2c(C)nc3ccc(F)cc3n12
[1]
  Drug uptake: > 90%

## COc1ccc2nc(C)c3c(C)nc(-c4ccccc4OC(F)(F)F)n3c2n1
[1]
  Drug uptake: > 90%

## COc1ccc2nc(C)c3c(C)nc(-c4ccccc4Cl)n3c2n1
[1]
  Drug uptake: > 90%

## COc1cc(OCc2ccccc2)cc2c1nc(C)c1c(C)nc(-c3cccnc3C)n12
[1]
  Drug uptake: > 90%

## Cc1cnccc1-c1nc(C)c2c(C)nc3c(F)cc(OCC4CC4)cc3n12
[1]
  Drug uptake: > 90%

## Cc1ccncc1-c1nc(C)c2c(C)nc3ccc(F)cc3n12
[1]
  Drug uptake: > 90%

## COc1cc(F)cc2c1nc(C)c1c(C)nc(-c3sc(C)nc3C)n12
[1]
  Drug uptake: > 90%

## COc1ccc2nc(C)c3c(C(F)(F)F)nc(-c4cc(Cl)ccc4Cl)n3c2n1
[1]
  Drug uptake: > 90%

## Cc1ccccc1-c1nc(C)c2c(C)nc3c(OCC(F)(F)F)cc(F)cc3n12
[1]
  Drug uptake: > 90%

## COc1cc(F)c2nc(C)c3c(C)nc(-c4c(C)nn(C)c4C)n3c2c1
[1]
  Drug uptake: > 90%

## Cc1cnccc1-c1nc(C)c2c(C)nc3c(F)cc(OC(F)F)cc3n12
[1]
  Drug uptake: > 90%

## COc1cc(F)c2nc(C)c3c(C)nc(-c4cnccc4C)n3c2c1
[1]
  Drug uptake: > 90%

## COc1ccc2nc(C)c3c(C)nc(-c4c(C)nn(C)c4C)n3c2n1
[1]
  Drug uptake: > 90%
[6]
  Vdss: 0.7 L/kg
[7]
  bioavailability: 67%
[4]
  AUC: 2940 ng·h/mL
[5]
  AUC: 4130 ng·h/mL

## COc1ccc2nc(C)c3c(C(F)(F)F)nc(-c4ccccc4Cl)n3c2n1
[1]
  Drug uptake: > 90%

## Cc1ccccc1-c1nc(C)c2c(C)nc3c(OCC4CC4)cc(F)cc3n12
[1]
  Drug uptake: > 90%

## Cc1ncccc1-c1nc(C)c2c(C)nc3ccc(C(F)(F)F)cc3n12
[1]
  Drug uptake: > 90%

## Cc1ccncc1-c1nc(C)c2c(C)nc3ccc(Cl)cc3n12
[1]
  Drug uptake: > 90%

## Cc1cnccc1-c1nc(C)c2c(C)nc3c(F)cc(F)cc3n12
[1]
  Drug uptake: > 90%

## COc1cc(F)cc2c1nc(C)c1c(C)nc(-c3c(C)nn(C)c3C)n12
[1]
  Drug uptake: > 90%

## COc1ccc2nc(C)c3c(C(F)(F)F)nc(-c4cc(F)ccc4Cl)n3c2n1
[1]
  Drug uptake: > 90%

## Cc1cnccc1-c1nc(C)c2c(C)nc3ccc(Cl)cc3n12
[1]
  Drug uptake: > 90%

## Cc1ccncc1-c1nc(C)c2c(C)nc3ccc(C(F)(F)F)cc3n12
[1]
  Drug uptake: > 90%

## COc1ccc2nc(C)c3c(C)nc(-c4cccnc4OC)n3c2n1
[1]
  Drug uptake: > 90%

## COc1cc(OC)c2nc(C)c3c(C)nc(-c4cnccc4C)n3c2c1
[1]
  Drug uptake: > 90%
[8]
  bioavailability: 100%
[2]
  bioavailability: 25%
[9]
  Vdss: 1.6 L/kg
[3]
  Vdss: 1.3 L/kg
[4]
  AUC: 3280 ng·h/mL
[5]
  AUC: 8850 ng·h/mL

## Cc1ccncc1-c1nc(C)c2c(C)nc3ccccc3n12
[1]
  Drug uptake: > 90%

## COc1cc(F)cc2c1nc(C)c1c(C)nc(-c3cccnc3C)n12
[1]
  Drug uptake: > 90%

## COc1cc(OC(F)F)cc2c1nc(C)c1c(C)nc(-c3cccnc3C)n12
[10]
  Vdss: 0.6 L/kg
[1]
  Drug uptake: > 90%
[11]
  bioavailability: 83%
[4]
  AUC: 4400 ng·h/mL
[12]
  bioavailability: 84%
[13]
  Vdss: 1.1 L/kg
[5]
  AUC: 12700 ng·h/mL

## COc1ccc2nc(C)c3c(C(F)(F)F)nc(-c4ccccc4C)n3c2n1
[1]
  Drug uptake: > 90%

## Cc1cnccc1-c1nc(C)c2c(C)nc3c(F)cc(OCC(F)(F)F)cc3n12
[1]
  Drug uptake: > 90%

## Cc1ccccc1-c1nc(C)c2c(C)nc3c(OC(F)F)cc(F)cc3n12
[1]
  Drug uptake: > 90%

## COc1cc(F)cc2c1nc(C)c1c(C)nc(-c3ccccc3C)n12
[1]
  Drug uptake: > 90%

## COc1ccc2nc(C)c3c(C)nc(-c4cnccc4Cl)n3c2n1
[1]
  Drug uptake: > 90%

## Cc1cnccc1-c1nc(C)c2c(C)nc3ccc(OC(F)(F)F)cc3n12
[1]
  Drug uptake: > 90%

## Cc1ccncc1-c1nc(C)c2c(C)nc3ccc(OC(F)(F)F)cc3n12
[1]
  Drug uptake: > 90%

## COc1ccc2nc(C)c3c(C)nc(-c4sccc4C)n3c2n1
[1]
  Drug uptake: > 90%

## COc1cc(N2CCOCC2)cc2c1nc(C)c1c(C)nc(-c3cccnc3C)n12
[1]
  Drug uptake: > 90%

## COc1ccc2nc(C)c3c(C)nc(-c4ccncc4Cl)n3c2n1
[1]
  Drug uptake: > 90%

## COc1cc(OC)c2nc(C)c3c(C)nc(-c4cccnc4C)n3c2c1
[1]
  Drug uptake: > 90%

## Cc1cnccc1-c1nc(C)c2c(C)nc3ccc(C(F)(F)F)cc3n12
[1]
  Drug uptake: > 90%

## COc1cc(OC)c2nc(C)c3c(C)nc(-c4ccncc4C)n3c2c1
[1]
  Drug uptake: > 90%

## COc1ccc2nc(C)c3c(C(F)(F)F)nc(-c4ccc(F)cc4Cl)n3c2n1
[1]
  Drug uptake: > 90%

## COc1cc(F)cc2c1nc(C)c1c(C)nc(-c3ccncc3C)n12
[1]
  Drug uptake: > 90%
[14]
  bioavailability: 73%
[15]
  Papp: permeable
[16]
  Papp: permeable
[17]
  Vdss: 6 L/kg
[2]
  bioavailability: 27%
[3]
  Vdss: 0.9 L/kg
[4]
  AUC: 2370 ng·h/mL
[5]
  AUC: 3640 ng·h/mL

## COc1ccc2nc(C)c3c(C)nc(-c4cncnc4)n3c2n1
[1]
  Drug uptake: > 90%

## COc1ccc2nc(C)c3c(C)nc(-c4ccccc4OC)n3c2n1
[1]
  Drug uptake: > 90%

## COc1ccc2nc(C)c3c(C)nc(-c4ccccc4C(N)=O)n3c2n1
[1]
  Drug uptake: > 90%

## Cc1ccccc1-c1nc(C)c2c(C)nc3c(O)cc(F)cc3n12
[1]
  Drug uptake: > 90%

## Cc1ccncc1-c1nc(C)c2c(C)nc3c(F)cc(F)cc3n12
[1]
  Drug uptake: > 90%

## COc1ccc2nc(C#N)c3c(C)nc(-c4ccccc4Cl)n3c2n1
[1]
  Drug uptake: > 90%

## COc1ccc2nc(C)c3c(C)nc(-c4c(C)n[nH]c4C)n3c2n1
[1]
  Drug uptake: > 90%
